Test results: patent US9096832B2, “Differentiation of human embryonic stem cells” (LifeScan, Inc., priority 2007, dated 2015)

How the values were obtained:
[1] = tested on: H9P46 embryonic stem cells; experiment: Definitive endoderm on […]: effective dose of Wnt-3a (FACS, PCR, cell number); assay type: cell-based, human
Method: Control cultures were not treated with Wnt-3a. FIG. 27, panel a depicts the expression of CXCR4 by FACS at day 5 in the absence of Wnt-3a, b) 10 ng/ml Wnt-3a, c) 20 ng/ml Wnt-3a and d) 50 ng/ml Wnt-3a. In the absence of Wnt-3a the expression of CXCR4 was very low. […] Real-time PCR results (FIG. 28, panel a) also confirm this finding.
In a separate study, H9p52 cells were plated on 1:30 low growth factor […]™. For the first 2 days of the DE protocol a range of Wnt-3a doses was used: 10 ng/ml, 5 ng/ml and 1 ng/ml. […] The number of cells at the end of the experiment is noted in FIG. 28, panel c.

[2] = tested on: H9 cells; experiment: Immunofluorescence staining of DE markers, activin A +/- Wnt-3a; assay type: cell-based, human
Text: Day 5 DE cultures of H9 cells were stained according to Example 10 for SOX-17, HNF-3B, GATA-4, N-cadherin, and E-cadherin. All nuclei were counter stained with DAPI.

[3] = tested on: human embryonic stem cell line H1 at passage 55; experiment: Definitive endoderm on human serum coated plates (real-time PCR); assay type: cell-based; details: with activin A, vs activin A only
Method: Cultures of the human embryonic stem cell line H1 at passage 55 were grown and differentiated on human serum (Sigma, #H1388, MO) coated plates. 0.5 ml of human serum was added to each well of 6 well tissue culture treated dish, incubated for 1 hr at room temperature, and aspirated before adding human embryonic stem cells. […] These findings parallel our findings for human embryonic stem cells cultured on […]™ or human fibronectin coated plates.

[4] = tested on: human embryonic stem cell line H9; experiment: Immunocytochemistry of definitive endoderm markers after activin A treatment; assay type: cell-based; details: activin A for five days
Text: The level of expression of definitive endoderm markers was examined by PCR (FIG. 1), FACS (results summarized in Table II), and immunohistochemistry (FIG. 2).
Levels of expression for HNF-3beta, Sox-17, and GATA4 were low in untreated cells, approximately 10 to 20% of all cells.

Row | Substance | number of CXCR4 positive cells ([1]; 10-50 ng/ml Wnt-3a, day 5) | Wnt3a dose sufficient to reach optimal cell expansion and definitive endoderm differentiation ([1]; for 2 days, H9p52 on 1:30 low growth factor MATRIGEL) [ng/mL] | nuclei stained positive for SOX-17, HNF-3beta, and GATA-4 ([2]; 20 ng/ml Wnt-3a, Day 5 DE cultures) | expression of N-cadherin ([2]; addition of Wnt-3a) | expression of e-cadherin ([2]; addition of Wnt-3a) | expression of definitive endoderm markers [3] | cells positive for Sox17 and HNF-3beta (immunocytochemistry) [4] | differentiated cells still Oct4 positive (immunocytochemistry) [4] [%]
1 | Wnt-3a | significantly increased | 10 | significantly larger number | enhanced expression | significant loss of expression | Robust expression | – | –
2 | Activin A: activin A (a member of the TGFβ superfamily), R&D Systems; 'w/o wnt' in Table VII = 100 ng/ml Activin A without Wnt3a | – | – | – | – | – | – | 30-40% | ~100
